Reference: patent US11351164B2, “Inhibitors of indoleamine 2,3-dioxygenase and methods of their use” (BRISTOL-MYERS SQUIBB COMPANY, priority 2016, dated 2022)

Biological target: T1, human IDO1 (Homo sapiens, UniProt P14902)
T1 construct: expressed in transfected cells
Assay: IDO inhibition assay in HEK293 cells stably expressing human IDO1 (kynurenine, Ehrlich reagent, absorbance 490 nm)
Format: cell-based
Conditions: 20 hours incubation, read-out: IDO1 HEK Human IC50
Experimental: HEK293 cells were transfected with a pCDNA-based mammalian expression vector harboring human IDO1 cDNA (NM 002164.2) by electroporation. They were cultured in medium (DMEM with 10% FBS) containing 1 mg/ml G418 for two weeks. Clones of HEK293 cells that stably expressed human IDO1 protein were selected and expanded for IDO inhibition assay. The human IDO1/HEK293 cells were seeded at 10,000 cells per 50 μL per well with RPMI/phenol red free media contains 10% FBS in a 384-well black wall clear bottom tissue culture plate (Matrix Technologies LLC) 100 nL of certain concentration of compound was then added to each well using ECHO liquid handling systems. The cells were incubated for 20 hours in 37° C. incubator with 5% CO2. The compound treatments were stopped by adding trichloroacetic acid (Sigma-Aldrich) to a final concentration at 0.2%. The cell plate was further incubated at 50° C. for 30 minute. The equal volume supernatant ([…]) and 0.2% (w/v) Ehrlich reagent (4-dimethylaminobenzaldehyde, Sigma-Aldrich) in glacial acetic acid were mixed in a new clear bottom 384-well plate. This plate was then incubated at room temperature for 30 minute. The absorbance at 490 nm was measured on Envision plate reader. Compound IC50 values were calculated using the counts of 500 nM of a reference standard treatment as one hundred percent inhibition, and counts of no compound but DMSO treatment as zero percent inhibition.

T1 sequence (P14902 whole entry): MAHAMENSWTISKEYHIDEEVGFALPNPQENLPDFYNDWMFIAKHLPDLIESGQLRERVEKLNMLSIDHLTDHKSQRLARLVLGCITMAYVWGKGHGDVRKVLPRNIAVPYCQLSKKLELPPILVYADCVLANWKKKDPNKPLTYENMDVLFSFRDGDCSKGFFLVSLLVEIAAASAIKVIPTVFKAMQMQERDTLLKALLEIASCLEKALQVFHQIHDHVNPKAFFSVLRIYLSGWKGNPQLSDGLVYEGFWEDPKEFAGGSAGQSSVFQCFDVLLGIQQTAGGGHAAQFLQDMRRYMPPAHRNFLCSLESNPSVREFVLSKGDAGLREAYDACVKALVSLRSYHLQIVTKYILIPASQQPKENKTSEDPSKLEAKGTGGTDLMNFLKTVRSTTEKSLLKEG

| SMILES | IC50 |
| --- | --- |
| CCC(c1nnc(-c2ccc(OC(C)C)cc2)[nH]1)C1CCC(c2ccnc3ccc(F)cc23)CC1 (stereo not drawn) [Example 53, 6-Fluoro-4-(4-(1-(5-(4-isopropoxyphenyl)-4H-1,2,4-triazol-3-yl)propyl)cyclohexyl)quinoline] | 144 nM |
| CCC(c1nnc(-c2ccc(OC(C)C)cc2)[nH]1)C1CCC(c2ccnc3ccc(F)cc23)CC1 (stereo not drawn) [Example 51, 6-Fluoro-4-(4-(1-(5-(4-isopropoxyphenyl)-4H-1,2,4-triazol-3-yl)propyl)cyclohexyl)quinoline] | 71.1 nM |
| CCC(c1nnc(-c2ccc(OC(C)C)cc2)o1)C1CCC(c2ccnc3ccc(F)cc23)CC1 (stereo not drawn) [Example 54, 2-(1-(4-(6-Fluoroquinolin-4-yl)cyclohexyl)propyl)-5-(4-isopropoxyphenyl)-1,3,4-oxadiazole] | 68.8 nM |
| COc1ccc(-c2nnc(N[C@H](C)[C@H]3CC[C@@H](c4ccnc5ccc(F)cc54)CC3)s2)cc1 [Example 26, N—((R)-1-((1s,4S)-4-(6-Fluoroquinolin-4-yl)cyclohexyl)ethyl)-5-(4-methoxyphenyl)-1,3,4-thiadiazol-2-amine] | 61.9 nM |
| Cc1csc(-c2nnc(N[C@H](C)[C@H]3CC[C@@H](c4ccnc5ccc(F)cc54)CC3)o2)n1 [Example 32, N-((R)-1-((1s,4S)-4-(6-fluoroquinolin-4-yl)cyclohexyl)ethyl)-5-(4-methylthiazol-2-yl)-1,3,4-oxadiazol-2-amine] | 3.5 nM |
| CCC(c1nnc(Nc2ccc(OC)cc2)[nH]1)C1CCC(c2ccnc3ccc(F)cc23)CC1 (single isomer, unassigned) [Example 55, 5-(1-(4-(6-Fluoroquinolin-4-yl)cyclohexyl)propyl)-N-(4-methoxyphenyl)-4H-1,2,4-triazol-3-amine] | 2000 nM |
| COc1ccc(-c2nnc(N[C@H](C)[C@H]3CC[C@@H](c4ccnc5ccc(F)cc54)CC3)[nH]2)cc1 [Example 42, N—((R)-1-((1s,4S)-4-(6-Fluoroquinolin-4-yl)cyclohexyl)ethyl)-5-(4-methoxyphenyl)-4H-1,2,4-triazol-3-amine] | 57.2 nM |
| CCC(Nc1nnc(-c2ccc(OC)cc2)o1)[C@H]1CC[C@@H](c2ccnc3ccc(F)cc32)CC1 (mixture of isomers) [Example 48, N-(1-((1s,4s)-4-(6-Fluoroquinolin-4-yl)cyclohexyl)propyl)-5-(4-methoxyphenyl)-1,3,4-oxadiazol-2-amine] | 3.6 nM |
| COc1ccc(-c2csc(N[C@H](C)[C@H]3CC[C@@H](c4ccnc5ccc(F)cc54)CC3)n2)cc1 [Example 36, N—((R)-1-((1s,4S)-4-(6-Fluoroquinolin-4-yl)cyclohexyl)ethyl)-4-(4-methoxyphenyl)thiazol-2-amine] | 729 nM |
| CCC(Nc1nnc(-c2ccc(OC)cc2)o1)[C@H]1CC[C@@H](c2ccnc(F)c2C)CC1 (single isomer, unassigned) [Example 63-2, N-(1-((1s,4s)-4-(2-Fluoro-3-methylpyridin-4-yl)cyclohexyl)propyl)-5-(4-methoxyphenyl)-1,3,4-oxadiazol-2-amine] | 141 nM |
| CCC(c1nnc(Nc2ccc(OC)cc2)[nH]1)C1CCC(c2ccnc3ccc(F)cc23)CC1 (single isomer, unassigned) [Example 56, 5-(1-(4-(6-Fluoroquinolin-4-yl)cyclohexyl)propyl)-N-(4-methoxyphenyl)-4H-1,2,4-triazol-3-amine] | 18.4 nM |
| COCc1nnc(N[C@H](C)[C@H]2CC[C@@H](c3ccnc4ccc(F)cc43)CC2)o1 [Example 34, N-((R)-1-((1s,4S)-4-(6-fluoroquinolin-4-yl)cyclohexyl)ethyl)-5-(methoxymethyl)-1,3,4-oxadiazol-2-amine] | 38.6 nM |
| CCC(Nc1nnc(-c2ccc(OC)cc2)o1)[C@H]1CC[C@@H](c2ccnc3ccc(F)cc32)CC1 (single isomer, unassigned) [Example 49-2, N-(1-((1s,4s)-4-(6-Fluoroquinolin-4-yl)cyclohexyl)propyl)-5-(4-methoxyphenyl)-1,3,4-oxadiazol-2-amine] | 177 nM |
| CCC(Nc1nnc(-c2ccc(OC)cc2)o1)[C@H]1CC[C@@H](c2ccnc3ccc(F)cc32)CC1 (single isomer, unassigned) [Example 49-1, N-(1-((1s,4s)-4-(6-Fluoroquinolin-4-yl)cyclohexyl)propyl)-5-(4-methoxyphenyl)-1,3,4-oxadiazol-2-amine] | 0.9 nM |
| COc1ccc(Nc2nnc([C@H](C)[C@H]3CC[C@@H](c4ccnc5ccc(F)cc54)CC3)[nH]2)cc1 [Example 20, 5-((R)-1-((1s,4s)-4-(6-Fluoroquinolin-4-yl)cyclohexyl)ethyl)-N-(4-methoxyphenyl)-4H-1,2,4-triazol-3-amine] | 135 nM |

Other lines, results leading:

| IC50 | SMILES |
| --- | --- |
| 126 nM | C[C@@H](Nc1nnc(-c2ccc(Cl)cc2)[nH]1)[C@H]1CC[C@@H](c2ccnc3ccc(F)cc32)CC1 [Example 40, 5-(4-Chlorophenyl)-N—((R)-1-((1s,4S)-4-(6-fluoroquinolin-4-yl)cyclohexyl)ethyl)-4H-1,2,4-triazol-3-amine] |
| 192 nM | COc1ccc(-c2nnc([C@H](C)[C@H]3CC[C@@H](c4ccnc5ccc(F)cc54)CC3)[nH]2)cc1 [Example 9] |
| 167 nM | C[C@@H](c1nnc(-c2ccc(Cl)cc2)o1)[C@H]1CC[C@@H](c2ccnc3ccc(F)cc32)CC1 [Example 4, 2-(4-Chlorophenyl)-5-((R)-1-((1s,4s)-4-(6-fluoroquinolin-4-yl)cyclohexyl)ethyl)-1,3,4-oxadiazole] |
| 543 nM | C[C@@H](c1nnc(Nc2ccc(F)cc2)s1)[C@H]1CC[C@@H](c2ccnc3ccc(F)cc32)CC1 [Example 7, N-(4-Fluorophenyl)-5-((R)-1-((1s,4S)-4-(6-fluoroquinolin-4-yl)cyclohexyl)ethyl)-1,3,4-thiadiazol-2-amine] |
| 42.7 nM | C[C@@H](Nc1nnc(-c2ccc(F)cc2)o1)[C@H]1CC[C@@H](c2ccnc3ccc(F)cc32)CC1 [Example 31, 5-(4-fluorophenyl)-N-((R)-1-((1s,4S)-4-(6-fluoroquinolin-4-yl)cyclohexyl)ethyl)-1,3,4-oxadiazol-2-amine] |
| 182 nM | C[C@@H](c1ncc(-c2ccc(F)cc2)o1)[C@H]1CC[C@@H](c2ccnc3ccc(F)cc32)CC1 [Example 45, 5-(4-Fluorophenyl)-2-((R)-1-((1s,4S)-4-(6-fluoroquinolin-4-yl)cyclohexyl)ethyl)oxazole] |
| 858 nM | C[C@@H](Nc1nc(-c2ccc(Cl)cc2)cs1)[C@H]1CC[C@@H](c2ccnc3ccc(F)cc32)CC1 [Example 37, 4-(4-Chlorophenyl)-N—((R)-1-((1s,4S)-4-(6-fluoroquinolin-4-yl)cyclohexyl)ethyl)thiazol-2-amine] |
| 124 nM | Cc1ccc(-c2nnc([C@H](C)[C@H]3CC[C@@H](c4ccnc5ccc(F)cc54)CC3)[nH]2)cc1 [Example 15, 6-fluoro-4-((1S,4s)-4-((R)-1-(5-p-tolyl-4H-1,2,4-triazol-3-yl)ethyl)cyclohexyl)quinoline] |
| 45.3 nM | C[C@@H](Nc1nnc(-c2ccc(Cl)cc2)o1)[C@H]1CC[C@@H](c2ccnc3ccc(F)cc32)CC1 [Example 23, 5-(4-Chlorophenyl)-N—((R)-1-((1s,4S)-4-(6-fluoroquinolin-4-yl)cyclohexyl)ethyl)-1,3,4-oxadiazol-2-amine] |
